From PubChem BioAssay (NCI) come the findings set out here.

Some test systems named below: MDA-MB-435; NCI-H23 lung; SN12C renal; SF-539 CNS; IGROV1 ovarian; UACC-257 melanoma; A549 NSCLC; CCRF-CEM leukemia; SF-295 CNS; COLO 205 colon.
Holding throughout (experiment): DTP human tumour cell line panel, 48 h

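Dose response: 5 concentrations. Exposure: 48 h. Format: 96-well plates. Endpoint: linear interpolation; highest concentration if not reached. GI50 is the concentration that inhibits growth by half. TGI marks complete inhibition of growth.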

As usually defined, the GI50 is the concentration that inhibits growth by half. By TGI is commonly meant the concentration at which net growth stops.

Regarding `CCN(CCNc1ccc(C)c2sc3cc(Cl)ccc3c(=O)c12)CC(C)(C)O`, the GI50 was 2 µM with MDA-MB-435; 6.88 µM in the assay on NCI-H23 lung; 20.8 µM with SN12C renal; 5.54 µM in the assay on SF-539 CNS; 2680 nM in the assay with IGROV1 ovarian; 2.03 µM in the assay with UACC-257 melanoma. Besides, the GI50 with A549 NSCLC was 5.2 µM; in the assay on CCRF-CEM leukemia, 7.5 µM; with SF-295 CNS, 1.86 µM; in the assay on COLO 205 colon, 1890 nM. For the same compound, the TGI in the assay with MDA-MB-435 was 4.59 µM; with NCI-H23 lung, 24.1 µM; in the assay with SN12C renal, greater than 100 µM; with SF-539 CNS, 24 µM; in the assay on IGROV1 ovarian, 19.1 µM; in the assay on UACC-257 melanoma it was 4.37 µM. For the same compound, the TGI in the assay with A549 NSCLC was 19.5 µM; with CCRF-CEM leukemia, 61 µM; with SF-295 CNS, 4.34 µM; in the assay on COLO 205 colon, 3.94 µM.

Consider `Cc1ccccc1CNc1c2ccccc2nc2ccccc12`, for which the GI50 with MDA-MB-435 is 1.67 µM; in the assay with NCI-H23 lung, 1.71 µM; in the assay on SN12C renal, 2.47 µM; in the assay on SF-539 CNS it was 1.84 µM; with IGROV1 ovarian it was 2000 nM; in the assay with UACC-257 melanoma, 2.2 µM. Besides, the GI50 in the assay on A549 NSCLC is 2.09 µM; in the assay on CCRF-CEM leukemia, 1.97 µM; with SF-295 CNS, 2.67 µM; in the assay with COLO 205 colon, 1600 nM. Moreover, the TGI is 3.18 µM with MDA-MB-435; 4.24 µM with NCI-H23 lung; 8.97 µM with SN12C renal; 4 µM in the assay on SF-539 CNS; 5.01 µM in the assay with IGROV1 ovarian; 5.23 µM in the assay with UACC-257 melanoma. For the same compound, the concentration for total growth inhibition (TGI) in the assay on A549 NSCLC was 5.22 µM; in the assay with CCRF-CEM leukemia, 12.6 µM; in the assay on SF-295 CNS, 11.8 µM; with COLO 205 colon, 3.5 µM.

As for `Cc1n(Cc2ccc3ccccc3n2)cc[n+]1Cc1ccc2ccccc2c1`, the GI50 in the assay with MDA-MB-435 was 0.412 µM; in the assay with NCI-H23 lung it was 0.935 µM; in the assay on SN12C renal, 0.518 µM; with SF-539 CNS, 0.579 µM; in the assay with IGROV1 ovarian, 1120 nM; in the assay with UACC-257 melanoma, 0.506 µM. The GI50 with A549 NSCLC is 1.34 µM; in the assay with CCRF-CEM leukemia, 1.07 µM; in the assay with SF-295 CNS it was 1.47 µM; in the assay on COLO 205 colon it was 302 nM. Further, the TGI in the assay on MDA-MB-435 was 2.69 µM; in the assay on NCI-H23 lung it was 9.81 µM; with SN12C renal, 11 µM; with SF-539 CNS, 8.76 µM; with IGROV1 ovarian it was 4.76 µM; with UACC-257 melanoma it was 2.89 µM. Besides, the TGI in the assay with A549 NSCLC was determined as 13.4 µM; in the assay on CCRF-CEM leukemia, 11.5 µM; with SF-295 CNS, 7.62 µM; in the assay on COLO 205 colon, 1.1 µM.

As for `O=C(CN(/C=C/C(=O)C(F)(F)F)c1ccccc1)c1ccc(F)cc1`, the GI50 with MDA-MB-435 is 27.1 µM; in the assay with NCI-H23 lung, 29.5 µM; in the assay with SN12C renal it was 21.2 µM; in the assay on SF-539 CNS it was 28.7 µM; with IGROV1 ovarian, 21900 nM; in the assay with UACC-257 melanoma, 19.1 µM. Further, the GI50 with A549 NSCLC is 35.4 µM; in the assay with CCRF-CEM leukemia, 15.8 µM; with SF-295 CNS it was 20.8 µM; with COLO 205 colon, 25000 nM. For the same compound, the TGI was 72.1 µM with MDA-MB-435; greater than 100 µM in the assay on NCI-H23 lung; 54.9 µM in the assay with SN12C renal; 63.8 µM with SF-539 CNS; 79.2 µM with IGROV1 ovarian; 93.2 µM in the assay with UACC-257 melanoma. The TGI in the assay with A549 NSCLC was greater than 100 µM; in the assay on CCRF-CEM leukemia, 41.4 µM; in the assay with SF-295 CNS, 69.6 µM; with COLO 205 colon it was 58.3 µM.

On to `CCOC(=O)c1cc2cc(OCc3ccccc3)ccc2[nH]1`, for which the GI50 in the assay with MDA-MB-435 was greater than 100 µM; in the assay with NCI-H23 lung, greater than 100 µM; in the assay on SN12C renal, greater than 100 µM; with SF-539 CNS, greater than 100 µM; in the assay on IGROV1 ovarian it was greater than 100000 nM; in the assay on UACC-257 melanoma, greater than 100 µM. The GI50 is greater than 100 µM in the assay with A549 NSCLC, greater than 100 µM in the assay on CCRF-CEM leukemia, greater than 100 µM in the assay on SF-295 CNS and greater than 100000 nM in the assay on COLO 205 colon. Further, the TGI in the assay on MDA-MB-435, with NCI-H23 lung, in the assay on SN12C renal, in the assay with SF-539 CNS, in the assay on IGROV1 ovarian and in the assay with UACC-257 melanoma was greater than 100 µM each time. Moreover, the TGI with A549 NSCLC, in the assay on CCRF-CEM leukemia, in the assay with SF-295 CNS and with COLO 205 colon was greater than 100 µM throughout.

Regarding `CCN(CC)C(=O)CCCCCn1c2ccccc2c2c3c(c4c5ccccc5[nH]c4c21)C(=O)N(O)C3=O`, the GI50 is 4.04 µM in the assay on MDA-MB-435; 3.33 µM in the assay on NCI-H23 lung; 4.03 µM in the assay on SN12C renal; 1.92 µM in the assay with SF-539 CNS; 2410 nM in the assay on IGROV1 ovarian; 10.7 µM with UACC-257 melanoma. Moreover, the GI50 was 21.8 µM with A549 NSCLC, 3.07 µM in the assay on CCRF-CEM leukemia, 6.07 µM with SF-295 CNS and 1970 nM with COLO 205 colon. Besides, the TGI in the assay on MDA-MB-435 is 40 µM; in the assay on NCI-H23 lung, 47.3 µM; with SN12C renal it was greater than 100 µM; in the assay with SF-539 CNS, 4.27 µM; in the assay with IGROV1 ovarian, 6.87 µM; with UACC-257 melanoma, 55.1 µM. The TGI turned out to be 98.4 µM in the assay on A549 NSCLC, 21.9 µM with CCRF-CEM leukemia, 55.7 µM in the assay on SF-295 CNS and 4.23 µM in the assay with COLO 205 colon.

`CCc1c(C#N)c(SC(C(N)=O)c2ccccc2)nc(N2CCC(N)CC2)c1C#N` (stereo not given): the GI50 in the assay on MDA-MB-435 was 15.4 µM; with NCI-H23 lung, 16.4 µM; in the assay on SN12C renal it was 13.1 µM; with SF-539 CNS it was 15.3 µM; in the assay with IGROV1 ovarian, 14000 nM; with UACC-257 melanoma, 14.3 µM. Moreover, the GI50 in the assay with A549 NSCLC is 18.4 µM; in the assay with CCRF-CEM leukemia it was 15.2 µM; in the assay with SF-295 CNS, 14.8 µM; in the assay with COLO 205 colon, 14200 nM. Moreover, the TGI in the assay on MDA-MB-435 amounted to 29.6 µM; in the assay on NCI-H23 lung, 31 µM; in the assay with SN12C renal it was 26 µM; with SF-539 CNS, 28.9 µM; in the assay on IGROV1 ovarian, 27.9 µM; with UACC-257 melanoma, 29.3 µM. The TGI came to 44.2 µM in the assay with A549 NSCLC, 36.8 µM with CCRF-CEM leukemia, 28.7 µM in the assay with SF-295 CNS and 27.8 µM in the assay with COLO 205 colon.
